Source: patent publication US10584115B2, “Substituted pyridine and pyrazine BMI-1 inhibitors” (PTC Therapeutics, Inc., priority 2013, dated 2020)

Tested on: Bmi-1 protein
Assay: Sandwich ELISA Assay (Bmi-1 protein level in HT-1080 cells after compound treatment)
Assay type: cell-based
Details: Table 1, Bmi-1 sandwich ELISA, read-out: ELISA EC50 value for Bmi-1 protein
Outline: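 HT-1080 cells exposed to compounds for 40–48 h at 37 °C (0.5% DMSO final), then lysed. Bmi-1 in lysates measured by sandwich ELISA (mouse monoclonal capture, rabbit anti-Bmi-1 detection, HRP anti-rabbit, TMB), read at OD450 with OD570 reference against a recombinant Bmi-1 standard curve (0–8000 pg/mL).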

| Structure (SMILES) | EC50 |
| --- | --- |
| Cc1nc2ccc(NCCO)cc2n1-c1cncc(Nc2ccc(C(F)(F)F)cc2)n1 [compound 397, 2-{[2-methyl-1-(6-{[4-(trifluoromethyl)phenyl]amino}pyrazin-2-yl)-1H-benzimidazol-6-yl]amino}ethanol] | 100 to 3000 nM |
| CCc1nc2c(n1-c1cncc(Nc3ccc(C(F)(F)F)cc3)n1)CN(C)CC2 [compound 398, 6-(2-ethyl-5-methyl-4,5,6,7-tetrahydro-3H-imidazo[4,5-c]pyridin-3-yl)-N-[4-(trifluoromethyl)phenyl]pyrazin-2-amine] | 100 to 3000 nM |
| Cc1nc2cc(F)c(F)cc2n1-c1cncc(Nc2ccc(Cl)nc2)n1 [compound 405, N-(6-chloropyridin-3-yl)-6-(5,6-difluoro-2-methyl-1H-benzimidazol-1-yl)pyrazin-2-amine] | 100 to 3000 nM |
| FC(F)(F)c1ccc(Nc2cncc(-c3cccc4[nH]ccc34)n2)cc1 [compound 407, 6-(1H-indol-4-yl)-N-[4-(trifluoromethyl)phenyl]pyrazin-2-amine] | 100 to 3000 nM |
| Cc1nc2ccccc2n1-c1cncc(NC2Cc3ccccc3C2)n1 [compound 424, N-(2,3-dihydro-1H-inden-2-yl)-6-(2-methyl-1H-benzimidazol-1-yl)pyrazin-2-amine] | 100 to 3000 nM |
| Cc1nc2cc(F)ccc2n1-c1cncc(Nc2ccc(Cl)nc2)n1 [compound 426, N-(6-chloropyridin-3-yl)-6-(5-fluoro-2-methyl-1H-benzimidazol-1-yl)pyrazin-2-amine] | 100 to 3000 nM |
| Cc1nc2cc(F)c(F)cc2n1-c1cncc(Nc2ccc(NCCN(C)C)nc2)n1 [compound 430, N^5-[6-(5,6-difluoro-2-methyl-1H-benzimidazol-1-yl)pyrazin-2-yl]-N^2-[2-(dimethylamino)ethyl]pyridine-2,5-diamine] | 100 to 3000 nM |
| Cc1nc2cc(F)ccc2n1-c1cncc(Nc2ccc(C(F)(F)F)nc2)n1 [compound 431, 6-(5-fluoro-2-methyl-1H-benzimidazol-1-yl)-N-[6-(trifluoromethyl)pyridin-3-yl]pyrazin-2-amine] | 10 to 100 nM |
| Cc1nc2ccc(F)cc2n1-c1cncc(Nc2ccc(C(F)(F)F)nc2)n1 [compound 432, 6-(6-fluoro-2-methyl-1H-benzimidazol-1-yl)-N-[6-(trifluoromethyl)pyridin-3-yl]pyrazin-2-amine] | 10 to 100 nM |
| Cc1nc2ccccc2n1-c1cncc(Nc2ccc(B3OC(C)(C)C(C)(C)O3)cc2)n1 [compound 433, 6-(2-methyl-1H-benzimidazol-1-yl)-N-[4-(4,4,5,5-tetramethyl-1,3,2-dioxaborolan-2-yl)phenyl]pyrazin-2-amine] | 100 to 3000 nM |
| Cc1nc2ccccc2n1-c1cncc(Nc2ccc(B(O)O)cc2)n1 [compound 434, (4-{[6-(2-methyl-1H-benzimidazol-1-yl)pyrazin-2-yl]amino}phenyl)boronic acid] | 10 to 100 nM |
| Cc1nc2ncc(F)cn2c1-c1cc(C#N)cc(Nc2ccc(OC(F)(F)F)cc2)n1 [compound 438, 2-(6-fluoro-2-methylimidazo[1,2-a]pyrimidin-3-yl)-6-{[4-(trifluoromethoxy)phenyl]amino}pyridine-4-carbonitrile] | 10 to 100 nM |
| Cc1nc2ccccc2n1-c1cncc(Nc2nc3ccc(C(F)(F)F)cc3s2)n1 [compound 440, N-[6-(2-methyl-1H-benzimidazol-1-yl)pyrazin-2-yl]-6-(trifluoromethyl)-1,3-benzothiazol-2-amine] | 100 to 3000 nM |
| N#Cc1cc(Nc2ccc(C(F)(F)F)nc2)nc(-c2c(CO)nc3ccc(F)cn23)c1 [compound 445, 2-[6-fluoro-2-(hydroxymethyl)imidazo[1,2-a]pyridin-3-yl]-6-{[6-(trifluoromethyl)pyridin-3-yl]amino}pyridine-4-carbonitrile] | 10 to 100 nM |
| N#Cc1cc(Nc2ccc(Cl)nc2)nc(-c2c(CO)nc3ccc(F)cn23)c1 [compound 446, 2-[(6-chloropyridin-3-yl)amino]-6-[6-fluoro-2-(hydroxymethyl)imidazo[1,2-a]pyridin-3-yl]pyridine-4-carbonitrile] | 100 to 3000 nM |
| CCc1nc2ncc(Cl)cc2n1-c1cc(C#N)cc(Nc2ccc(C(F)(F)F)cc2)n1 [compound 450, 2-(6-chloro-2-ethyl-1H-imidazo[4,5-b]pyridin-1-yl)-6-{[4-(trifluoromethyl)phenyl]amino}pyridine-4-carbonitrile] | 10 to 100 nM |

More lines, now with the values ahead:

| EC50 | Structure (SMILES) |
| --- | --- |
| 1 to 10 nM | COCCn1nc(C)c(-c2cncc(Nc3ccc(C(F)(F)F)cc3)n2)c1C [compound 399, 6-[1-(2-methoxyethyl)-3,5-dimethyl-1H-pyrazol-4-yl]-N-[4-(trifluoromethyl)phenyl]pyrazin-2-amine] |
| 10 to 100 nM | FC1CCc2nc(C(F)(F)F)c(-c3cncc(Nc4ccc(C(F)(F)F)cc4)n3)n2C1 (stereo not shown) [compound 406, 6-[6-fluoro-2-(trifluoromethyl)-5,6,7,8-tetrahydroimidazo[1,2-a]pyridin-3-yl]-N-[4-(trifluoromethyl)phenyl]pyrazin-2-amine] |
| 10 to 100 nM | Cc1cc(Nc2cncc(-n3c(C)nc4ccccc43)n2)ccc1C(F)(F)F [compound 408, 6-(2-methyl-1H-benzimidazol-1-yl)-N-[3-methyl-4-(trifluoromethyl)phenyl]pyrazin-2-amine] |
| 1 to 10 nM | COC1CCc2nc(C)c(-c3cncc(Nc4ccc(C(F)(F)F)cc4)n3)n2C1 (stereo not shown) [compound 409, 6-(6-methoxy-2-methyl-5,6,7,8-tetrahydroimidazo[1,2-a]pyridin-3-yl)-N-[4-(trifluoromethyl)phenyl]pyrazin-2-amine] |
| 10 to 100 nM | Fc1ccc2nc(C(F)(F)F)c(-c3cccc(Nc4ccc(C(F)(F)F)cc4)n3)n2c1 [compound 411, 6-[6-fluoro-2-(trifluoromethyl)imidazo[1,2-a]pyridin-3-yl]-N-[4-(trifluoromethyl)phenyl]pyridin-2-amine] |
| 1 to 10 nM | Cc1nn(C)c(Cl)c1-c1cncc(Nc2ccc(C(F)(F)F)cc2)n1 [compound 412, 6-(5-chloro-1,3-dimethyl-1H-pyrazol-4-yl)-N-[4-(trifluoromethyl)phenyl]pyrazin-2-amine] |
| 1 to 10 nM | Cc1nn(C)c(Cl)c1-c1cncc(Nc2ccc(OC(F)F)cc2)n1 [compound 413, 6-(5-chloro-1,3-dimethyl-1H-pyrazol-4-yl)-N-[4-(difluoromethoxy)phenyl]pyrazin-2-amine] |
| 10 to 100 nM | Cc1nn(C)c(Cl)c1-c1cncc(Nc2ccc(OC(F)(F)F)cc2)n1 [compound 414, 6-(5-chloro-1,3-dimethyl-1H-pyrazol-4-yl)-N-[4-(trifluoromethoxy)phenyl]pyrazin-2-amine] |
| 10 to 100 nM | Cc1nn(C)c(Cl)c1-c1cncc(Nc2ccc(OC(F)F)c(F)c2)n1 [compound 415, 6-(5-chloro-1,3-dimethyl-1H-pyrazol-4-yl)-N-[4-(difluoromethoxy)-3-fluorophenyl]pyrazin-2-amine] |
| 10 to 100 nM | Cn1nc2ccc(F)cc2c1-c1cncc(Nc2ccc(C(F)(F)F)cc2)n1 [compound 416, 6-(5-fluoro-2-methyl-2H-indazol-3-yl)-N-[4-(trifluoromethyl)phenyl]pyrazin-2-amine] |
| 10 to 100 nM | Cc1nc2c(F)cc(F)cc2n1-c1cncc(Nc2ccc(C(F)(F)F)cc2)n1 [compound 417, 6-(4,6-difluoro-2-methyl-1H-benzimidazol-1-yl)-N-[4-(trifluoromethyl)phenyl]pyrazin-2-amine] |
| 10 to 100 nM | ONc1cc(Nc2ccc(C(F)(F)F)cc2)nc(-c2c(C(F)(F)F)nc3ccc(F)cn23)c1 [compound 418, 6-[6-fluoro-2-(trifluoromethyl)imidazo[1,2-a]pyridin-3-yl]-N^4-hydroxy-N^2-[4-(trifluoromethyl)phenyl]pyridine-2,4-diamine] |
| 1 to 10 nM | Cc1nc2ncc(Cl)cc2n1-c1cc(C#N)cc(Nc2ccc(C(F)(F)F)cc2)n1 [compound 419, 2-(6-chloro-2-methyl-1H-imidazo[4,5-b]pyridin-1-yl)-6-{[4-(trifluoromethyl)phenyl]amino}pyridine-4-carbonitrile] |
| 1 to 10 nM | Cc1nc2ccccc2n1-c1cncc(Nc2nc3ccccc3s2)n1 [compound 420, N-[6-(2-methyl-1H-benzimidazol-1-yl)pyrazin-2-yl]-1,3-benzothiazol-2-amine] |
| 10 to 100 nM | FC(F)(F)c1ccc(Nc2cncc(-c3c(C4CC4)nc4ncccn34)n2)cc1 [compound 422, 6-(2-cyclopropylimidazo[1,2-a]pyrimidin-3-yl)-N-[4-(trifluoromethyl)phenyl]pyrazin-2-amine] |
| 10 to 100 nM | Cc1nc2cc(F)c(F)cc2n1-c1cncc(Nc2ccc(N3CCOCC3)nc2)n1 [compound 423, 6-(5,6-difluoro-2-methyl-1H-benzimidazol-1-yl)-N-[6-(morpholin-4-yl)pyridin-3-yl]pyrazin-2-amine] |
| 10 to 100 nM | Cc1nc2cc(F)c(F)cc2n1-c1cncc(Nc2ccc(NCCO)nc2)n1 [compound 425, 2-[(5-{[6-(5,6-difluoro-2-methyl-1H-benzimidazol-1-yl)pyrazin-2-yl]amino}pyridin-2-yl)amino]ethanol] |
| 10 to 100 nM | Cc1nc2ccc(F)cc2n1-c1cncc(Nc2ccc(Cl)nc2)n1 [compound 427, N-(6-chloropyridin-3-yl)-6-(6-fluoro-2-methyl-1H-benzimidazol-1-yl)pyrazin-2-amine] |
| 1 to 10 nM | Cc1nc2ncc(Cl)cc2n1-c1cc(C#N)cc(Nc2ccc(OC(F)F)cc2)n1 [compound 428, 2-(6-chloro-2-methyl-1H-imidazo[4,5-b]pyridin-1-yl)-6-{[4-(difluoromethoxy)phenyl]amino}pyridine-4-carbonitrile] |
| 1 to 10 nM | Cc1nc2ncc(Cl)cc2n1-c1cc(C#N)cc(Nc2ccc(OC(F)F)c(F)c2)n1 [compound 429, 2-(6-chloro-2-methyl-1H-imidazo[4,5-b]pyridin-1-yl)-6-{[4-(difluoromethoxy)-3-fluorophenyl]amino}pyridine-4-carbonitrile] |
| 1 to 10 nM | CCc1nc2ncc(Cl)cc2n1-c1cc(C#N)cc(Nc2ccc(OC(F)F)cc2)n1 [compound 451, 2-(6-chloro-2-ethyl-1H-imidazo[4,5-b]pyridin-1-yl)-6-{[4-(difluoromethoxy)phenyl]amino}pyridine-4-carbonitrile] |
